Assay [1] relates to chicken chorioallantoic membrane (CAM). As to the kind of experiment: Effect of LQC-T on CAM angiogenesis (CAM method, vessel count). The assay is classed as in vivo. The settings on record: 20 μg/chicken embryo; for small vessel angiogenesis of CAM model, Medicine group (X ± S): 72 h incubation, number of small vessels, blank group 8.67 ± 1.03. The protocol: Embryonated chicken eggs of Lohmann of German, egg weight 50-60 g (embryo experiment center of Chinese Agriculture University)
LQC-T (1-6) (prepared by the methods of examples 2-7), wherein the purity was ≧98%, determined by high performance liquid chromatography (HPLC), meeting the requirements of the experiment. The powder was carefully sealed and preserved at 4° C.
Aseptic gelatin sponge, which was made into a wafer having a diameter of 5 mm by a hole-puncher in advance, was used as sample carrier. The prepared LQC-T series compounds were added according to 20 μg/chicken embryo in an aseptic environment. The 0.9% physiological saline was used in a blank group. The samples were air-dried in an aseptic environment.
A hatching egg after disinfection was put into a 37° C. incubation box with air sac upward until the seventh day of incubation. The egg embryo was disinfected using alcohol at a super clean bench, and then a small hole was drilled at the top of the egg embryo using a dental drill, and the nearby egg shell and shell membrane were removed carefully to form the opening with the size of about 1.2 cm×1.2 cm. After spotting the location for applying the sample, the air sac was broken with injection needle at the interface between air sac and the yolk and then 1-2 drops of aseptic physiological saline was injected so that the air sac membrane was separated from CAM membrane. Then the upper air sac membrane was slightly removed with a nipper to expose the lower CAM membrane.
The medicine-containing carrier was softly put by a nipper at the locations of CAM and yolk cyst membrane with fewer vessels, the opening was then sealed with aseptic transparent tape and incubation was continued for another 72 h.
After the incubation, the transparent tape blocking the chicken embryo air sac was removed with a nipper. The liquid of equal-volumetrically mixed methanol/acetone 1-2 ml was added and fixed at room temperature for 10 min. The CAM membrane was carefully removed and put it onto a slide. Then it was observed and a photograph was taken. The effect of the compounds on angiogenesis was evaluated by the count analytic method using the numbers of great vessels, medium vessels and small vessels arranged radially around by the carrier.
All the data were statistically analyzed using SPSS11.0 software pack. The difference between the administration group and the blank group was given through one-way variance analysis. P<0.05 had statistical significance.

In assay [2] the test system is rat primary cortical neurons. As to the kind of experiment: Proliferation of primary neuronal cells by MTT and morphology observation. The assay is classed as cell-based. To be noted: 60 μM; normal neurons; control 0.7567 ± 0.1109. The protocol: SD pregnant rats: pregnant for 16-18 d, certificate number: SCXK (Jing) 2006-0009, provided by BeiJing Vital River Laboratories.
LQC-T4 (prepared by the method of example 5), the purity was ≧98%, determined by high performance liquid chromatography (HPLC), which met the requirement of the experiment. The powder was carefully sealed and preserved at 4° C. The prepared LQC-T4 was dissolved using dimethyl sulfoxide and made into […] storing liquid for use.
Referring to the document [HongQingtao, TangYipeng, Neurons of cerebral cortex of newborn rats in in vitro primary culture, Chinese Journal of Neuroanatomy, 1994, 10(3):259-262], the pregnant 16-18 d SD rat was executed by dislocation. The fetal rat was taken out in an aseptic environment, the meninges and blood steak were stripped, the cortex was separated and cut into 1 mm^3 tissue block (all carried out on ice). The tissue block was digested at 37[…] with 0.1% pancreatic enzyme-0.02% EDTA for 20 min. Digesting was stopped using DMEM containing fetal calf serum and the number of the cells was adjusted to 5×10^5 cells ml^−1. The resultant cells were inoculated into a 96 well plate treated by 0.001% polylysine and the plate was put in a 37° C. 5% CO2 incubation box to be cultured. The cultivation liquid was changed (totally) after 48 h and add adenine arabinoside was added (final concentration is 5 μM) to inhibit the excessive proliferation of non-neurons. The cultivation liquid was changed after 48 h with fresh cultivation liquid and culture was continued. And the cultivation liquid was changed every 3 days afterward.
The cultivation liquid was sucked away on the eighth day of neuron culture. DMEM culture-medium containing 0.15% DMSO was added to the blank group, while 60 μM, 30 μM, 15 μM LQC-T4, 60 μM tetramethylpyrazine and 60 μM vanillic acid were respectively added to the administration group. Ten parallel wells were set as a group. And they were put into a 37° C., 5% CO2 incubation box to continue culturing for 24 h.
5 mg/ml MTT 20 μl was added to each well at the time of 4 h before the experiment ended and the cultivation liquid was sucked away. DMSO 200 μl was added to each well. When the purple particles were completely dissolved, the enzyme-linked immune assay was used to measure the optical density at 540 nm.
(§1) The SAS 8.2 statistical software was used to carry out the one-way ANOVA variance analysis and the difference among the groups were compared by t-test.

Assay [3] relates to ICR mice. As to the kind of experiment: Buccal respiration duration of mice after head cutting (4° C. icy water swimming model). The format is in vivo, mouse. To be noted: 80 mg/kg intragastrically once a day for 10 days, control 32.45 ± 5.49. The protocol:
ICR mice, half female and half male, weighing 19-21 g, certificate No.: SCXK (Jing) 2006-0009, provided by BeiJing Vital River Laboratories.
LQC-T4, tetramethylpyrazine (TMP), vanillic acid, Nimodipine (ShanDong XinHua Pharmaceutical CO., Ltd, batch No.: 0908164)
160 male ICR mice were divided into 8 groups randomly by weight, each of which contained 20 mice, wherein 0.5% CMC-NA (0.2 ml·10 g^−1) was administrated intragastrically to the blank control group; 6.7 mg·kg^−1 Nimodipine (0.2 ml·10 g^−1) was administrated intragastrically to the positive control group; 100 mg·kg^−1 TMP (0.2 ml·10 g^−1) was administrated intragastrically to the TMP group, three different dosage of 200 mg·kg^−1, 100 mg·kg^−1, 50 mg·kg^−1 were administrated intragastrically to the LQC-T4 (0.2 ml·10 g^−1) group relatively, and 125 mg·kg^−1 TMP+80 mg·kg^−1 vanillitc acid (0.2 ml·10 g^−1) was administrated intragastrically respectively. The medicines were continuously administrated once a day for 10 days.
The literature was referred to: [LiuZhenquan, SunHui, Xuqiuping, etc., Experimental Study on the Brain-Protective Effect of the Effective Fraction of Naoxin Formula in the Mouse Model of with Load-Bearing Swimming in Cold Water, Journal of Beijing University of Traditional Chinese Medicine [J], 2004, 27(4): 54-56] and the method recorded therein was improved. The head was rapidly cut with a scissor at post mortem when the mouse swam in 4° C. icy water for 3 min after the final administration. After head being cut, the buccal respiration duration of mouse was recorded.
as §1

With `Cc1nc(C)c(COC(=O)c2ccc(OCc3nc(C)c(C)nc3C)c(OCc3nc(C)c(C)nc3C)c2)nc1C` [LQC-T2, (3,5,6-trimethylpyrazine-2-yl)methyl-3,4-bis((3,5,6-trimethylpyrazine-2-yl)methoxy) benzoate], the “small vessel angiogenesis of CAM model, Medicine group (X ± S)” value (“small vessel angiogenesis of CAM model” below) in assay [1] came to 14.17 ± 1.47. For the same compound, the “effect on growth of new (small) vessels compared with the blank group” value in assay [1] (result in words) is given as “significant promoting effect”. Regarding “(3,5,6-trimethylpyrazin-2-yl)methyl 4-hydroxy-3-methoxybenzoate [LQC-T1]”, the “small vessel angiogenesis of CAM model” value in assay [1] came out at 12.7 ± 2.73. With `Cc1nc(C)c(COc2ccc(C=O)cc2OCc2nc(C)c(C)nc2C)nc1C` [LQC-T5, 3,4-bis((3,5,6-trimethylpyrazine-2-yl)methoxy)benzaldehyde], the “small vessel angiogenesis of CAM model” value in assay [1] is given as 14.17 ± 5.19. For `COc1cc(C(=O)O)ccc1O` [Vanillic acid, vanillic acid, reference compound], in assay [2], the “MTT(A540), 24 h after the administration” value stood at 0.8820 ± 0.1469. Also, the “respiration duration” value in assay [3] worked out at 35.73 ± 5.66 s. For the compound `Cc1nc(C)c(COC(=O)/C=C/c2ccc(OCc3nc(C)c(C)nc3C)c(OCc3nc(C)c(C)nc3C)c2)nc1C` [LQC-T6], in assay [1], the “small vessel angiogenesis of CAM model” value is recorded as 8.83 ± 3.71. Take `COc1cc(C(=O)OCc2nc(C)c(C)nc2C)ccc1O` [LQC-T3, (3,5,6-trimethylpyrazine-2-yl)methyl-3-methoxy-4-hydroxybenzoate]: in assay [1], the “small vessel angiogenesis of CAM model” value is 10.4 ± 2.16.

Source of the values: patent US8987449B2, “Medicine for treating ischemic brain injury and its sequelae, and preparation method thereof” (Haimin Lei, priority 2011, dated 2015).
